# Measured values reported in US7906522B2, “2-aminoquinazoline derivatives” (Kyowa Hakko Kirin Co., Ltd, priority 2005, dated 2011).
# Target: T1, Activated human p38α (Homo sapiens, UniProt Q16539)
# T1 construct: purchased Upstate Biotechnology Inc. 14-251
# Assay: p38MAP kinase inhibition test
# Assay type: biochemical
# Conditions: at a concentration of 1 μmol/L; substrate myelin basic protein, ATP 20 μmol/L, [γ-32P]ATP; read-out: enzyme inhibitory activity
# How it was run: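 Phosphorylation of myelin basic protein (20 μg/assay) by the kinase measured via [γ-32P]ATP incorporation at 20 μmol/L ATP, pH 7.2 MOPS buffer, 30° C. for 15 min. Labelled substrate bound to P81 paper, washed, and quantified by scintillation counting; compounds added in DMSO.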
# T1 sequence (Q16539 whole entry): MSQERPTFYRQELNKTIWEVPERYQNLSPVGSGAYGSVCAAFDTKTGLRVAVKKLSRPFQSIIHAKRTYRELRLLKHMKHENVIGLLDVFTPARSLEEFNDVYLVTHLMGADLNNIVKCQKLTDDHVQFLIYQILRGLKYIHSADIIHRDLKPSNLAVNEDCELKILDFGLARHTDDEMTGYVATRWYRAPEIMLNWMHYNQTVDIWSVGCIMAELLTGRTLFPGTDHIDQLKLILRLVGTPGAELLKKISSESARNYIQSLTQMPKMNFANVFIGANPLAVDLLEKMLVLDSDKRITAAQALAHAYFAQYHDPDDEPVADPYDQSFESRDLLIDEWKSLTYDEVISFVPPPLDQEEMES
row,inhibition at 1 µM,Structure (SMILES)
1,≥ 50%,"CS(=O)(=O)N1CCC(Nc2ncc3cc(-c4ccccc4Cl)c(O)cc3n2)CC1 [Compound 156, 6-(2-Chlorophenyl)-7-hydroxy-2-[1-(methylsulfonyl)piperidin-4-ylamino]quinazoline]"
2,≥ 50%,"CCS(=O)(=O)N1CCC(Nc2ncc3cc(-c4ccccc4Cl)c(O)cc3n2)CC1 [Compound 161, 6-(2-Chlorophenyl)-2-[1-(ethylsulfonyl)piperidin-4-ylamino]-7-hydroxyquinazoline]"
3,≥ 50%,"CC(C)Nc1ncc2cc(-c3cccc(C(=O)NC4CC4)c3)ccc2n1 [Compound 270, 6-[3-(Cyclopropylcarbamoyl)phenyl]-2-(isopropylamino)quinazoline]"
4,≥ 50%,"CC[C@H](C)Nc1ncc2cc(-c3cc(NC(C)=O)ccc3CO)ccc2n1 [Compound 272, (S)-6-[5-acetylamino-2-(hydroxymethyl)phenyl]-2-(sec-butylamino)quinazoline]"
5,≥ 50%,"CC[C@H](C)Nc1ncc2cc(-c3cc(NC(=O)c4ccc[nH]4)ccc3CO)ccc2n1 [Compound 273, (S)-2-(sec-Butylamino)-6-{2-hydroxymethyl-5-[(1H-pyrrol-2-yl)carbonylamino]phenyl}quinazoline]"
6,≥ 50%,"CC(=O)Nc1cccc(-c2ccc3nc(NC4CCN(S(C)(=O)=O)CC4)ncc3c2)c1 [Compound 274, 6-[3-(Acetylamino)phenyl]-2-[1-(methylsulfonyl)piperidin-4-ylamino]quinazoline]"
7,≥ 50%,"Cc1ccccc1-c1ccc2nc(NC3CCN(S(C)(=O)=O)CC3)ncc2c1 [Compound 275, 6-(2-Methylphenyl)-2-[1-(methylsulfonyl)piperidin-4-ylamino]quinazoline]"
8,≥ 50%,"CS(=O)(=O)N1CCC(Nc2ncc3cc(-c4cccc(O)c4)ccc3n2)CC1 [Compound 276, 6-(3-Hydroxyphenyl)-2-[1-(methylsulfonyl)piperidin-4-ylamino]quinazoline]"
9,≥ 50%,"CC(=O)Nc1cccc(-c2cc3cnc(NC(C)C)nc3cc2C)c1 [Compound 277, 6-[3-(Acetylamino)phenyl]-2-isopropylamino-7-methylquinazoline]"
10,≥ 50%,"Cc1cc2nc(NC(C)C)ncc2cc1-c1cccc(NC(=O)c2ccc[nH]2)c1 [Compound 278, 2-Isopropylamino-7-methyl-6-{3-[(1H-pyrrol-2-yl)carbonylamino]phenyl}quinazoline]"
11,≥ 50%,"Cc1cc2nc(NC(C)C)ncc2cc1-c1cccc(NC(=O)c2ccnc(N3CCOCC3)c2)c1 [Compound 279, 2-Isopropylamino-7-methyl-6-{3-[(2-morpholinopyridin-4-yl)carbonylamino]phenyl}quinazoline]"
12,≥ 50%,"CC(=O)Nc1ccc(CO)c(-c2cc3cnc(NC(C)C)nc3cc2C)c1 [Compound 280, 6-[(5-Acetylamino-2-hydroxymethyl)phenyl]-2-isopropylamino-7-methylquinazoline]"
13,≥ 50%,"Cc1cc2nc(NC(C)C)ncc2cc1-c1cc(NC(=O)c2ccc[nH]2)ccc1CO [Compound 281, 6-{2-Hydroxymethyl-5-[(1H-pyrrol-2-yl)carbonylamino]phenyl}-2-isopropylamino-7-methylquinazoline]"
14,≥ 50%,"CC(C)Nc1ncc2cc(-c3cccc([N+](=O)[O-])c3)c(OCc3ccccc3)cc2n1 [Compound 282, 7-Benzyloxy-2-isopropylamino-6-(3-nitrophenyl)quinazoline]"
15,≥ 50%,"CC(C)Nc1ncc2cc(-c3cccc(N)c3)c(O)cc2n1 [Compound 285, 6-(3-Aminophenyl)-7-hydroxy-2-(isopropylamino)quinazoline]"
16,≥ 50%,"CC(=O)Nc1cccc(-c2cc3cnc(NC(C)C)nc3cc2O)c1 [Compound 287, 6-[3-(Acetylamino)phenyl]-7-hydroxy-2-(isopropylamino)quinazoline]"
17,≥ 50%,"CC(=O)Nc1ccc(C)c(-c2cc3cnc(NC(C)C)nc3cc2O)c1 [Compound 289, 6-(5-Acetylamino-2-methylphenyl)-7-hydroxy-2-(isopropylamino)quinazoline]"
18,≥ 50%,"CC(C)Nc1ncc2cc(-c3cccc(NC(=O)c4ccc[nH]4)c3)c(O)cc2n1 [Compound 292, 7-Hydroxy-2-isopropylamino-6-{3-[(1H-pyrrol-2-yl)carbonylamino]phenyl}quinazoline]"
19,≥ 50%,"Cc1ccc(NC(=O)C2CCC2)cc1-c1cc2cnc(NC(C)C)nc2cc1O [Compound 293, 6-(5-Cyclobutylcarbonylamino-2-methylphenyl)-7-hydroxy-2-(isopropylamino)quinazoline]"
20,≥ 50%,"CC(C)Nc1ncc2cc(-c3cccc(NC(=O)C4CCC4)c3)c(O)cc2n1 [Compound 294, 6-[3-(Cyclobutylcarbonylamino)phenyl]-7-hydroxy-2-(isopropylamino)quinazoline]"
21,≥ 50%,"Cc1ccc(NC(=O)C2CC2)cc1-c1cc2cnc(NC(C)C)nc2cc1O [Compound 295, 6-(5-Cyclopropylcarbonylamino-2-methylphenyl)-7-hydroxy-2-(isopropylamino)quinazoline]"
22,≥ 50%,"CC(C)Nc1ncc2cc(-c3cccc(NC(=O)C4CC4)c3)c(O)cc2n1 [Compound 296, 6-[3-(Cyclopropylcarbonylamino)phenyl]-7-hydroxy-2-(isopropylamino)quinazoline]"
23,≥ 50%,"CCC(=O)Nc1cccc(-c2cc3cnc(NC(C)C)nc3cc2O)c1 [Compound 297, 7-Hydroxy-2-isopropylamino-6-[3-(propionylamino)phenyl]quinazoline]"
24,≥ 50%,"CC(C)Nc1ncc2cc(-c3cccc(NC(=O)C(C)(C)C)c3)c(O)cc2n1 [Compound 298, 6-[3-(tert-Butylcarbonylamino)phenyl]-7-hydroxy-2-(isopropylamino)quinazoline]"
25,≥ 50%,"CC(C)Nc1ncc2cc(-c3cccc(NC(=O)C4(C)CC4)c3)c(O)cc2n1 [Compound 299, 7-Hydroxy-2-isopropylamino-6-{3-[(1-methylcyclopropyl)carbonylamino]phenyl}quinazoline]"
26,≥ 50%,"Cc1cccc(C)c1Nc1ncc2cc(-c3cccc(NC(=O)c4cccc(N(C)C)c4)c3)c(O)cc2n1 [Compound 314, 6-{3-[(3-Dimethylaminophenyl)carbonylamino]phenyl}-2-(2,6-dimethylanilino)-7-hydroxyquinazoline]"
27,≥ 50%,"CC(C)Nc1ncc2cc(-c3cccc4ccccc34)c(O)cc2n1 [Compound 326, 7-Hydroxy-2-isopropylamino-6-(naphthalen-1-yl)quinazoline]"
28,≥ 50%,"Cc1ccc(-n2nc(C(C)(C)C)cc2C(=O)Nc2cccc(-c3cc4cnc(NC(C)C)nc4cc3O)c2)cc1 [Compound 359, 6-{3-[5-tert-Butyl-2-(4-methylphenyl)-2H-pyrazol-3-ylcarbonylamino]phenyl}-7-hydroxy-2-(isopropylamino)quinazoline]"

# System: not given
# Assay: not given
# Conditions: not given
row,melting point,Structure (SMILES)
1,268 to 271 °C,"CS(=O)(=O)N1CCC(Nc2ncc3cc(-c4ccccc4Cl)c(O)cc3n2)CC1 [Compound 156, 6-(2-Chlorophenyl)-7-hydroxy-2-[1-(methylsulfonyl)piperidin-4-ylamino]quinazoline]"
2,251 to 253 °C,"CCS(=O)(=O)N1CCC(Nc2ncc3cc(-c4ccccc4Cl)c(O)cc3n2)CC1 [Compound 161, 6-(2-Chlorophenyl)-2-[1-(ethylsulfonyl)piperidin-4-ylamino]-7-hydroxyquinazoline]"
3,215 to 217 °C,"CC(C)Nc1ncc2cc(-c3cccc(NC(=O)c4cc(F)cc(N5CCCCC5)c4)c3)c(O)cc2n1 [Compound 370, 6-{3-[3-Fluoro-5-(piperidino)benzoylamino]phenyl}-7-hydroxy-2-(isopropylamino)quinazoline]"
4,275 to 279 °C,"CC(C)Nc1ncc2cc(-c3cccc(C(=O)Nc4ccnc(N5CCCC5)c4)c3)c(O)cc2n1 [Compound 372, 7-Hydroxy-2-isopropylamino-6-{3-[2-(pyrrolidin-1-yl)pyridin-4-ylcarbamoyl]phenyl}quinazoline]"
5,178 °C,"CC(C)Nc1ncc2cc(-c3cccc(NC(=O)c4ccnc(N5CCN(C)CC5)c4)c3)c(O)cc2n1 [Compound 374, 7-Hydroxy-2-isopropylamino-6-{3-[2-(4-methylpiperazin-1-yl)pyridin-4-ylcarbonylamino]phenyl}quinazoline]"
6,235 to 236 °C,"CC(C)Nc1ncc2cc(-c3cccc(NC(=O)c4cccc(N5CCCC5)c4)c3)c(O)cc2n1 [Compound 376, 7-Hydroxy-2-isopropylamino-6-{3-[3-(pyrrolidin-1-yl)benzoylamino]phenyl}quinazoline]"
7,235 to 236 °C,"Cc1ccc(C(N)=O)cc1-c1cc2cnc(NC(C)C)nc2cc1O [Compound 378, 6-(5-Carbamoyl-2-methylphenyl)-7-hydroxy-2-(isopropylamino)quinazoline]"
8,157 °C,"CCONC(=O)c1ccc(C)c(-c2cc3cnc(NC(C)C)nc3cc2O)c1 [Compound 380, 6-(5-Ethoxycarbamoyl-2-methylphenyl)-7-hydroxy-2-(isopropylamino)quinazoline]"
9,194 °C,"CCC(CC)Nc1ncc2cc(-c3cccc(NC(=O)c4ccnc(N5CCCC5)c4)c3)c(O)cc2n1 [Compound 382, 2-(3-Pentylamino)-7-hydroxy-6-{3-[2-(pyrrolidin-1-yl)pyridin-4-ylcarbonylamino]phenyl}quinazoline]"
10,165 to 168 °C,"CC[C@H](C)Nc1ncc2cc(-c3cccc(NC(=O)c4ccnc(N5CCCC5)c4)c3)c(O)cc2n1 [Compound 384, (S)-2-(sec-Butylamino)-7-hydroxy-6-{3-[2-(pyrrolidin-1-yl)pyridin-4-ylcarbonylamino]phenyl}quinazoline]"
11,230 °C,"CC(C)Nc1ncc2cc(-c3cccc(NC(=O)c4cccc(N5CCCCC5)c4)c3)c(O)cc2n1 [Compound 386, 7-Hydroxy-2-isopropylamino-6-{3-[3-(piperidino)benzoylamino]phenyl}quinazoline]"
12,224 to 226 °C,"Cc1cc(F)ccc1-c1cc(C(=O)Nc2cccc(-c3cc4cnc(NC(C)C)nc4cc3O)c2)ccn1 [Compound 388, 6-{3-[2-(4-Fluoro-2-methylphenyl)pyridin-4-ylcarbonylamino]phenyl}-7-hydroxy-2-(isopropylamino)quinazoline]"
